Series [1] is described as follows: Cytotoxicity against human HK-2 cells incubated for 72 hrs by MTT assay. It is filed as toxicity, cell-based.
Series [2] concerns HK-2. In words: Protection against cisplatin-induced nephrotoxicity in human HK-2 cells assessed as cell viability at 1 uM preincubated with compound for 2 hrs followed by cisplatin induction and measured after 72 hrs by MTT assay (reference value: 45.1 +/- 3.2%). The settings on record: time 74 hrs, read-out: Activity. It is filed as functional. In general terms: Tetrazolium assays rely on reduction of a dye to a coloured formazan, in cell work by metabolically active cells.

The test system of series [3] is HK-2. Nature of the series: Protection against cisplatin-induced nephrotoxicity in human HK-2 cells assessed as cell viability at 5 uM preincubated with compound for 2 hrs followed by cisplatin induction and measured after 72 hrs by MTT assay (reference value: 45.1 +/- 3.2%). It is filed as functional. The settings on record: time 74 hrs, read-out: Activity.
The test system of series [4] is HK-2. In words: Protection against cisplatin-induced nephrotoxicity in human HK-2 cells assessed as cell viability at 10 uM preincubated with compound for 2 hrs followed by cisplatin induction and measured after 72 hrs by MTT assay (reference value: 45.1 +/- 3.2%). It is filed as functional. To be noted: time 74 hrs, read-out: Activity.
For series [5], the system named is HK-2. Nature of the series: Protection against cisplatin-induced nephrotoxicity in human HK-2 cells assessed as cell viability at 1 uM preincubated with compound for 2 hrs followed by cisplatin induction and measured after 72 hrs by MTT assay (reference value: 37.37 +/- 1.35%). It is filed as functional. The settings on record: time 74 hrs, read-out: Activity.

Series [6] concerns HK-2. Nature of the series: Protection against cisplatin-induced nephrotoxicity in human HK-2 cells assessed as cell viability at 5 uM preincubated with compound for 2 hrs followed by cisplatin induction and measured after 72 hrs by MTT assay (reference value: 37.37 +/- 1.35%). It is filed as functional. To be noted: time 74 hrs, read-out: Activity.
Series [7] deals with HK-2. In words: Protection against cisplatin-induced nephrotoxicity in human HK-2 cells assessed as cell viability at 10 uM preincubated with compound for 2 hrs followed by cisplatin induction and measured after 72 hrs by MTT assay (reference value: 37.37 +/- 1.35%). It is filed as functional. To be noted: time 74 hrs, read-out: Activity.
Series [8] has as its system HK-2. Nature of the series: Protection against cisplatin-induced nephrotoxicity in human HK-2 cells at 5 to 10 uM preincubated with compound for 2 hrs followed by cisplatin induction and measured after 72 hrs by MTT assay. To be noted: dose 5-10 µM, time 74.0 hrs. It is filed as functional, cell-based.
The subject of series [9] is HK-2. In words: Protection against cisplatin-induced nephrotoxicity in human HK-2 cells preincubated with compound for 2 hrs followed by cisplatin induction and measured after 72 hrs by MTT assay. It is filed as functional, cell-based. To be noted: dose 1-10 µM, time 74.0 hrs.
In series [10] the test system is HK-2. Nature of the series: Protection against cisplatin-induced nephrotoxicity in human HK-2 cells increase in viability at 10 uM preincubated with compound for 2 hrs followed by cisplatin induction and measured after 72 hrs by MTT assay (reference value: 45.1%). The settings on record: time 74 hrs. It is filed as functional.
Series [11] deals with T1, Tyrosine-protein phosphatase non-receptor type 1 (Homo sapiens, UniProt P18031).
T1 sequence (P18031 whole entry): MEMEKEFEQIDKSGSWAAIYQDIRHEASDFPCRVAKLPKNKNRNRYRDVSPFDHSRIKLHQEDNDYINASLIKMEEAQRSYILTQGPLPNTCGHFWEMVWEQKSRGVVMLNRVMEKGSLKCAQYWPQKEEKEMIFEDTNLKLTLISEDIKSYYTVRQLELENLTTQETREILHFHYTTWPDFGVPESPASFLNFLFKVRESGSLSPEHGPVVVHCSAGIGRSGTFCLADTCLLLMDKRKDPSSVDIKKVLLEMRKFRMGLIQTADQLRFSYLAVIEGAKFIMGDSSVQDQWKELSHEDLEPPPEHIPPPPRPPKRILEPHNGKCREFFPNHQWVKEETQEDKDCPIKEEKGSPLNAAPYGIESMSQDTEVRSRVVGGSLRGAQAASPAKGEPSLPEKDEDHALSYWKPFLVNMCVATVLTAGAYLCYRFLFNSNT
In words: Inhibition of PTP1B (unknown origin).

Series [12] in a line: Antitumor activity against cisplatin-induced mouse Lewis lung carcinoma cell line xenografted C57BL/6J mouse assessed as reduction in tumor mass at 50 mg/kg, po preadministered with compound for 3 days followed by cisplatin addition on day 3 and measured 72 hrs post cisplatin administration. It is filed as functional. The arrangement: scale not given: the % may be the effect or the level left. The settings on record: time 6 day.

Here are results for four molecules from ChEMBL document CHEMBL5550222, “Synthesis and Biological Evaluation of Novel Psidium Meroterpenoid Derivatives against Cisplatin-Induced Acute Kidney Injury” (J Med Chem, 2024).

Activity calls are given as the source filed them. No cut-off for these calls is given here.

For the molecule `COc1c(CO)c(OC)c(C(=O)c2ccccc2)c2c1CC1CC/C(C)=C/CC(C)(C)/C=C/CC1(C)O2` (stereo not drawn), in series [1], the IC50 (in general, the midpoint of a concentration-inhibition curve) at 72 h was above 10 µM. The results for the viability at 1 µM in the series on HK-2 [2] and with HK-2 [5] were 45.7% and 39.1%, respectively. Moreover, the values for the viability at 5 µM with HK-2 [3] and with HK-2 [6] were 80.8% and 50.5%, respectively. Also, the viability at 10 µM turned out to be 95.5% with HK-2 [4] and 61.6% in the series on HK-2 [7]. The outcome in the series on HK-2 [8] was Active. In addition, the Activity result in the series with HK-2 [9] is “Dose-Dependent Effect”; in the series with HK-2 [10] it was above 90%.
Regarding `CC1(C)[C@H]2[C@H]3[C@@H](CC[C@]3(C)[C@@H](c3ccccc3)c3c(O)c(C=O)c(O)c(C=O)c3O)[C@](C)(O)CC[C@H]21`, in series [11], the IC50 was determined as 5 µM.
With `C=C1CC[C@@H]2[C@H](c3ccccc3)c3c(O)c(C=O)c(O)c(C=O)c3O[C@@]2(C)CC[C@H]2[C@H]1CC2(C)C`, the 50% inhibitory concentration (IC50) in series [11] was 5 µM.
On to `NCCCNCCSP(=O)(O)O` [AMIFOSTINE], for which the Activity in series [12] was found to be 28.2%.
